Experimental data as given in patent US7317038B2, “Nerve regeneration promoters containing semaphorin inhibitor as the active ingredient” (Dainippon Sumitomo Pharma Co., Ltd., priority 2000, dated 2008).

Test system: spinal cord injury model adult rats
Test: In vivo nerve regeneration after transection of the spinal nerve (cerebral cortex-spinal cord tract)
Conditions: rat; 0.6 μg/day for four consecutive weeks
Protocol: Male Wister rats (10-week-old) were purchased from Charles River Japan, Inc. and bred under free feeding and water uptake in a dedicated breeding room. They were used in the experiment after about one week of pre-breeding. SPF-3059-1 was prepared to 0.1 mg/ml with PBS. PBS was used as a control. The agent was filled in an osmotic pressure pump (Alzet, model 2004, dosage for four weeks, flow rate 0.25 μl/hr). A cannula filled with the sample solution etc. was connected to the pump and pre-incubated in saline overnight at room temperature.
A rat was intrapenitrially injected with pentbarbital (50 mg/kg). Skin and muscles in dorsal thoracic spinal cord region of the anesthetized rat were incised and the T8-T12 vertebras were exposed. Laminectomy was carried out for the T11 thoracic vertebra under the microscope. A pair of ophthalmologic scissors attached to the manipulator was punctured and inserted across the median line into the depth of 1.5 mm from the duramater surface, and the cerebral cortex-spinal cord pathway was incised and separated. The vertebra opening was filled with a spongel. Cannulation was performed from the T9 vertebra which was perforated with a surgical drill to expose the duramater. The part of the duramater, to which a cannula was to be inserted, was perforated with an injection needle and the silicon tube connected with the pump was inserted therein. […]

CC(=O)c1c(C)c(C(=O)C2COc3cc(O)c(O)c(C(=O)O)c3C2=O)cc2c(=O)c3c(C(=O)O)c(O)c(O)cc3oc12 (stereo not shown) [SPF-3059-1]
nerve-regeneration promoting action after spinal nerve incision (DBA-positive fibers): has the nerve-regeneration promoting action
